What was measured:
[1] = molecular target: T1, TRPM2 channel (Homo sapiens, UniProt O94759); test: Whole cell patch clamp, TRPM2 channel gating in tet-induced TRPM2-expressing HEK-293 cells; assay type: cell-based
T1 construct: expressed in transfected cells; host or cells: tetracycline-inducible HEK-293
Method: (§1) Shown is the development of whole cell currents over time in TRPM2-expressing HEK-293 cells. Bath solution was standard ringer's, and pipette solution was Cs-based and included 10 mM EGTA to buffer intracellular Ca^2+ to 10 nM. The patch pipette contained various concentrations of (FIG. 1a) ADPr, (FIG. 1b) OAADPr (FIG. 1c) OAADPr and puromycin as indicated in the figure. FIG. 1d.) Cytoplasmic OAADPr esterase activity is inhibited by puromycin. 200 μM O-[^3H]AADPr and 0-100 μM puromycin were added to cytoplasmic HEK-293 extract for 30 min. Percent hydrolysis of O-[^3H]AADPr to [^3H]acetate was measured as described hereinbelow. FIG. 1e.) Nuclear OAADPr acetyltransferase activity is not inhibited by puromycin. HEK-293 nuclear extract was incubated with 200 μM O-[^3H]AADPr in the presence or absence of 100 μM puromycin for 60 min. The reactions were quenched and resolved by HPLC. The radioactivity in collected fractions was determined by liquid scintillation counting. FIGS. 1f-g.) In vivo detection of OAADPr. Mass spectrum of HEK-293 generated OAADPr (peak m/z of 602.0894; the theoretical m/z for OAADPr is 602.0895) after puromycin treatment, with authentic [^13C]-OAADPr (peak m/z of 603.0851 and isotopic distribution of 604.0878 and 605.0928) as a standard. Peak 599.3691 is from the matrix.
Patch clamp electrophysiology was performed as previously described (23). Briefly, cells were patch clamped in the whole cell configuration at 25° C. using pipettes with resistances ranging from 2-3 MOhms. Currents were recorded on an EPC9 patch clamp amplifier with automatic capacitance compensation using a protocol generating a 50 msec voltage ramp from −100 to +100 mv every two seconds at a holding potential of 0 mv (appropriately corrected for liquid junction potential). Bath solution included 150 mM NaCl, 2.8 mM KCl, 5 mM CsCl, 1 mM CaCl2, 2 mM MgCl2, and 10 mM Hepes (pH 7.2). Pipette solution included 135 mM CsGlutamate, 1 mM MgCl2, 8 mM NaCl, 10 mM Hepes (pH 7.2), and 10 mM EGTA. […]

[2] = tested on: OAADPr esterase; test: Cytoplasmic OAADPr esterase activity in HEK-293 cytoplasmic extract; assay type: biochemical
Method: as §1
Cytoplasmic and nuclear extracts were prepared from HEK-293 cells as previously described (22). To detect esterase activity (22), cytoplasmic extract was incubated with 200 μM O-[^3H]AADPr in the presence of 0-100 μM puromycin for 30 min. Activated charcoal slurry in PBS, pH 7.0 was added to quench the reaction and bind O-[^3H]AADPr. Samples were vortexed and centrifuged. Aliquots of the supernatant containing [^3H]acetate were removed and analyzed by liquid scintillation counting. To detect nuclear OAADPr metabolizing activity (22), nuclear extract was incubated with 200 μM O-[^3H]AADPr in the presence or absence of 100 μM puromycin for 60 min. The reaction was terminated by addition of TFA to 1%. […] Radioactivity in each elution fraction was measured by liquid scintillation counting.

[3] = tested on: cellular levels of OAADPr in HEK-293 cells; test: Detection of cellular OAADPr by HPLC fractionation and MALDI mass spectrometry; assay type: cell-based; conditions: puromycin-treated vs mock-treated HEK-293 cells
Method: as §1, with “matrix. […]” for “matrix.”

[4] = tested on: pancreatic cells; conditions: not the result of inhibition of protein synthesis (ref. 47); cited from earlier work

T1 sequence (O94759 whole entry): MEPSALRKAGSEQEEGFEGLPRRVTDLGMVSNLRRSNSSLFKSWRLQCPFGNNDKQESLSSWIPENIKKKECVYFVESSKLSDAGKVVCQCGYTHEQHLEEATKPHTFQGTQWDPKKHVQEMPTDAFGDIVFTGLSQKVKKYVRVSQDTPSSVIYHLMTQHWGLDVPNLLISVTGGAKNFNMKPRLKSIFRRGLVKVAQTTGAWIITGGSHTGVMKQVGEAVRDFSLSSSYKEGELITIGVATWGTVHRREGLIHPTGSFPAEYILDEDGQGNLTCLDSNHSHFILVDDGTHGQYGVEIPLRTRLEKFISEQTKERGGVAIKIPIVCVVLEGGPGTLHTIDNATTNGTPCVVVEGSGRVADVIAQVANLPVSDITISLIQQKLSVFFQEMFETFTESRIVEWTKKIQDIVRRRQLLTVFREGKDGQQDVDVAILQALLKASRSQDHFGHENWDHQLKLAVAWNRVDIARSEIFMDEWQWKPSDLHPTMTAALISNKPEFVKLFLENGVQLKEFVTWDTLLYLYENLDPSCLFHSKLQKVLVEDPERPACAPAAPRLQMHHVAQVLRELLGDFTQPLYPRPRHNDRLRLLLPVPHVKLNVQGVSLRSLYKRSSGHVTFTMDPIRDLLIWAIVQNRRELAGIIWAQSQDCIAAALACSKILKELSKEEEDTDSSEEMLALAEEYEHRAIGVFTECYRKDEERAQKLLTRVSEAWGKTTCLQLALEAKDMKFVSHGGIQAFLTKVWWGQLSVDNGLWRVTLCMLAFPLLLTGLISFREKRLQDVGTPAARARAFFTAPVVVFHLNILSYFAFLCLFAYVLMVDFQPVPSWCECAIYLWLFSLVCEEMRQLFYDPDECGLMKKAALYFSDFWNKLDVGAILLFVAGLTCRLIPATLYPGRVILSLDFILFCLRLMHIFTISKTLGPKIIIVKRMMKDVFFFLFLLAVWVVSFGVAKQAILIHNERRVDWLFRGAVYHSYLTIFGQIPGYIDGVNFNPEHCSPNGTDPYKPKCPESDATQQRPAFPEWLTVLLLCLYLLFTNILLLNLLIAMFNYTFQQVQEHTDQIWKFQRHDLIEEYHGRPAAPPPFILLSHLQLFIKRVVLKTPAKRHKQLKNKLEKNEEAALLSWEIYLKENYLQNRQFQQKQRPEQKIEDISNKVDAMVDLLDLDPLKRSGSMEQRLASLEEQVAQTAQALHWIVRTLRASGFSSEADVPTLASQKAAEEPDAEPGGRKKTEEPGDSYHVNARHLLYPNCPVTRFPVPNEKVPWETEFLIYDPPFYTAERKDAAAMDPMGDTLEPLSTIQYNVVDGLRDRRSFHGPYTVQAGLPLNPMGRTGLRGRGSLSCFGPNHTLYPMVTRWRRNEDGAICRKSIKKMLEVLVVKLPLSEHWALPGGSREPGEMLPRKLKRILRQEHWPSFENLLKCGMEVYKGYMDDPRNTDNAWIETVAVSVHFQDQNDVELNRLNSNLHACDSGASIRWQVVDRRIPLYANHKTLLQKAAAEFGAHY

## COc1ccc(C[C@H](N)C(=O)N[C@H]2[C@@H](O)[C@H](n3cnc4c(N(C)C)ncnc43)O[C@@H]2CO)cc1 [puromycin]
[1]; 100 μM puromycin alone, data not shown
  effect on TRPM2 channel activity, compound alone: no affect
[1]; 125-250 μM puromycin in the patch pipette with OAADPr
  enhancement of OAADPr gated TRPM2 channel activity: no significant enhancement
[2]; 5 μM puromycin
  inhibition of cytosolic esterase activity: substantially inhibit
[2]; 80 μM puromycin
  inhibition of esterase activity: completely inhibited
[2]; 200 μM O-[3H]AADPr, 0-100 μM puromycin, 30 min
  inhibition of OAADPr esterase: potent inhibitor
[3]
  cellular levels of OAADPr after treatment: significantly detectable levels
[4]
  effect of puromycin treatment in whole rat: specific pancreatic cell death
